Results reported in patent US20210255193A1, “LYSINE REACTIVE PROBES AND USES THEREOF” (The Scripps Research Institute, priority 2017, published 2021).

Tests used:
Experiment in all cases: competitive isoTOP-ABPP
Format in all cases: binding
Settings in all cases: 50 uM_231_sol_in vitro
[1] = target: T1, ENOPH1 Enolase-phosphatase E1 (Homo sapiens, UniProt Q9UHY7)
T1 construct: endogenous in cells; host or cells: MDA-MB-231 (soluble fraction of lysate)
Summary of the method: (§1)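 Cell lysate treated in vitro with fragments (50 μM activated esters, 100 μM guanidinylating agents) or DMSO, labelled 1 h at ambient temperature with 0.1 mM STP-alkyne, CuAAC-tagged with light/heavy TEV tags, analysed by MS. R = DMSO/compound MS1 peak-area ratio; lysines with R≥4 called liganded.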

[2] = target: T2, TRMT10C Mitochondrial ribonuclease P protein 1 (Homo sapiens, UniProt Q7L0Y3)
T2 construct: isoTOP-ABPP experiments performed in cell lysates (in vitro); endogenous in cells; host or cells: soluble proteome of human cancer cell lines (MDA-MB-231; Ramos and Jurkat also prepared)
T2 sequence (Q7L0Y3 40-403): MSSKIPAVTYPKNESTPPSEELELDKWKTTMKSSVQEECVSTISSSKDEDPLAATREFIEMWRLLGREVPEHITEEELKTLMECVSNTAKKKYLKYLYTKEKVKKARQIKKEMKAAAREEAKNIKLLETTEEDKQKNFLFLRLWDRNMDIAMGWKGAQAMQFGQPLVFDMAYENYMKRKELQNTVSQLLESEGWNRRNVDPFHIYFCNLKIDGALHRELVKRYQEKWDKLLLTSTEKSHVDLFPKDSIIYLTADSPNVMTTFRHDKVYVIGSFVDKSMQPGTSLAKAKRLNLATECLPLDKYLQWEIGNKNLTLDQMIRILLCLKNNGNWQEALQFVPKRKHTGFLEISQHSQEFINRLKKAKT
Summary of the method: as §1

FAH Fumarylacetoacetase = target: T3, FAH Fumarylacetoacetase (Homo sapiens, UniProt P16930)
T3 construct: isoTOP-ABPP experiments performed in cell lysates (in vitro); endogenous in cells; host or cells: soluble proteome of human cancer cell lines (MDA-MB-231; Ramos and Jurkat also prepared)
T3 sequence (P16930 1-419): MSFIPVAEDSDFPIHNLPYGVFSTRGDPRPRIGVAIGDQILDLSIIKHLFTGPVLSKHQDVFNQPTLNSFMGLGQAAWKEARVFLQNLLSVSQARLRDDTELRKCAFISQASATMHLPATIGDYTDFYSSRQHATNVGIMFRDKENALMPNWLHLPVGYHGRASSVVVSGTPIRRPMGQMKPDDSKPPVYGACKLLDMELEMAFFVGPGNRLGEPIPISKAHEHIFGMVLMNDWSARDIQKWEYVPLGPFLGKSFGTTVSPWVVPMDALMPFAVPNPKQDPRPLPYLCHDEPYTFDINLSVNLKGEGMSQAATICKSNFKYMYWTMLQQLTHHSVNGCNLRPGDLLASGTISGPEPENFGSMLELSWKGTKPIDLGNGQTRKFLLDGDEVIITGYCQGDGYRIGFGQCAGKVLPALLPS
Summary of the method: as §1

[3] = target: T4, GLOD4 Glyoxalase domain-containing protein 4 (Homo sapiens, UniProt Q9HC38)
T4 construct: endogenous in cells; host or cells: MDA-MB-231 (soluble fraction of lysate)
T4 sequence (Q9HC38 1-313): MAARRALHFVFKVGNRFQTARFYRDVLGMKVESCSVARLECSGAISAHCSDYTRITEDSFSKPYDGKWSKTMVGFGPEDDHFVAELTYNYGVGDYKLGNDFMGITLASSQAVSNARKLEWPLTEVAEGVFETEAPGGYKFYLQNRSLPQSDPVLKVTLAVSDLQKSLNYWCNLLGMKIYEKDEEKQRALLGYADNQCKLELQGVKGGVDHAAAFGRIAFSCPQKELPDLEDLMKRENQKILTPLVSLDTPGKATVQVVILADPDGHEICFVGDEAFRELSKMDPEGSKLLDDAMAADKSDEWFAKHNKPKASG
Summary of the method: as §1

[4] = target: T5, POLR2L DNA-directed RNA polymerases I, II, and III subunit (Homo sapiens, UniProt P62875)
T5 construct: isoTOP-ABPP experiments performed in cell lysates (in vitro); endogenous in cells; host or cells: soluble proteome of human cancer cell lines (MDA-MB-231, Ramos, Jurkat)
Summary of the method: as §1

T1 sequence (Q9UHY7 whole entry): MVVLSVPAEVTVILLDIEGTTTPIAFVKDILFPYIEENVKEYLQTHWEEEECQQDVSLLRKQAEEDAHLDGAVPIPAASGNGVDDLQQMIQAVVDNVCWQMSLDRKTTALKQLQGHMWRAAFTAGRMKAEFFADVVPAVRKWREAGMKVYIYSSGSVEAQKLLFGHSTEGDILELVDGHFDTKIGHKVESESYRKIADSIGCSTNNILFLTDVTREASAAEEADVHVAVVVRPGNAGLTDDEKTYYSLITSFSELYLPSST

## NC(=O)c1cc(C(F)(F)F)cc(C(F)(F)F)c1 [fragment 51, reference compound]
[1]
  isoTOP-ABPP ratio, lysine Q9UHY7_K111: 0.9
[2]
  isoTOP-ABPP ratio, lysine Q7L0Y3_K325: 0.9
FAH Fumarylacetoacetase
  isoTOP-ABPP ratio, lysine P16930_K241: 0.9
[3]
  isoTOP-ABPP ratio, lysine Q9HC38_K305: 0.9
[4]
  isoTOP-ABPP ratio, lysine P62875_K67: 1.0
